Laboratory results from patent publication US20010044445A1, “AZOLE INHIBITORS OF CYTOKINE PRODUCTION” (priority 1999, published 2001).

What was measured:
[1] = system: Human peripheral blood mononuclear cells; test: Human Concanavalin-A Proliferation Assay (Con HU Assay); assay type: cell-based; conditions: concanavalin-A stimulated human PBMC; for inhibition at 100 µM / IC50 / inhibition at 10 µM / inhibition at 1 µM: Homo sapiens, PBMC; for inhibition at 100 µM / inhibition at 10 µM / inhibition at 1 µM: 72 h, read-out: % Inhibition of proliferation (at concentrations of 1,10, or 100 μm); for inhibition at 100 µM: concentration 100 μm (in parentheses in the cell); for inhibition at 100 µM / inhibition at 10 µM / inhibition at 1 µM / % Inhibition of proliferation (at concentrations of 1,10, or 100 μm): 3 days; for IC50: tritiated thymidine; for inhibition at 10 µM: concentration 10 μm (in parentheses in the cell); for inhibition at 1 µM / % Inhibition of proliferation (at concentrations of 1,10, or 100 μm): concentration 1 μm (in parentheses in the cell)
How it was run: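 Histopaque-isolated human PBMC (50,000/well) were pre-incubated 15 min with compounds, then stimulated with concanavalin-A at 2.5 μg/ml final for 3 days at 37 °C, 5% CO2. Proliferation measured by 6 h pulse with 0.5 μCi/well [3H]thymidine and beta counting.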

| melting point | SMILES | inhibition at 100 µM [1] | IC50 [1] | inhibition at 10 µM [1] | inhibition at 1 µM [1] | % Inhibition of proliferation (at concentrations of 1,10, or 100 μm) [1] |
| --- | --- | --- | --- | --- | --- | --- |
| 155 to 156 °C | Cc1ccc(C(=O)Nc2ccc(-n3nc(C(F)(F)F)cc3C(F)(F)F)cc2)c(Cl)n1 [Example 151, N-[4-[3,5-bis(trifluoromethyl)-1H-pyrazol-1-yl]phenyl]-2-chloro-6-methyl-3-pyridinecarboxamide] | 99% | 295 nM | – | – | – |
| 81 to 82 °C | FC(F)(F)c1cc(C(F)(F)F)n(-c2ccc(/C=C/c3ccccc3Cl)cc2)n1 [Example 154, (E)-1-[4-[2-(2-chlorophenyl)ethenyl]phenyl]-3,5-bis(trifluoromethyl)-1H-pyrazole] | – | 3820 nM | 52% | – | – |
| 282 to 283 °C | O=C(O)c1ccc(C(=O)Nc2ccc(-n3nc(C(F)(F)F)cc3C(F)(F)F)cc2)cc1 [Example 157, 4-[[[4-[3,5-bis(trifluoromethyl)-1H-pyrazol-1-yl]phenyl]amino]carbonyl]benzoic acid] | – | 6760 nM | 42% | – | – |
| 244 to 245 °C | O=C(O)c1cccc(C(=O)Nc2ccc(-n3nc(C(F)(F)F)cc3C(F)(F)F)cc2)c1 [Example 159, 3-[[[4-[3,5-bis(trifluoromethyl)-1H-pyrazol-1-yl]phenyl]amino]carbonyl]benzoic acid] | – | 2930 nM | 93% | – | – |
| 127 to 128 °C | O=C(Nc1ccc(-n2nc(C(F)(F)F)cc2C(F)(F)F)cc1)c1c(F)cccc1F [Example 160, N-[4-[3,5-bis(trifluoromethyl)-1H-pyrazol-1-yl]phenyl]-2,6-difluorobenzamide] | – | – | – | 1% | – |
| 185 to 188 °C | Cc1ccsc1C(=O)Nc1ccc(-n2nc(C(F)(F)F)cc2C(F)(F)F)cc1 [Example 162, N-[4-[3,5-bis(trifluoromethyl)-1H-pyrazol-1-yl]phenyl]-3-methyl-2-thiophenecarboxamide] | – | 44 nM | 100% | – | – |
| 204 to 206 °C | Nc1ccccc1C(=O)Nc1ccc(-n2nc(C(F)(F)F)cc2C(F)(F)F)cc1 [Example 163, 2-amino-N-[4-[3,5-bis(trifluoromethyl)-1H-pyrazol-1-yl]phenyl]benzamide] | 98% | 235 nM | – | – | – |
| 110 to 112 °C | O=C(Nc1ccc(-n2nc(C(F)(F)F)cc2C(F)(F)F)cc1)c1cccnc1F [Example 164, N-[4-[3,5-bis(trifluoromethyl)-1H-pyrazol-1-yl]phenyl]-2-fluoro-3-pyridinecarboxamide] | – | 39 nM | 99% | – | – |
| 210 to 212 °C | CS(=O)(=O)c1csc(C(=O)Nc2ccc(-n3nc(C(F)(F)F)cc3C(F)(F)F)cc2)c1Cl [Example 165, N-[4-[3,5-bis(trifluoromethyl)-1H-pyrazol-1-yl]phenyl]-3-chloro-4-(methylsulfonyl)-2-thiophenecarboxamide] | – | 6700 nM | 57% | – | – |
| > 240 °C | O=C(Nc1ccc(-n2nc(C(F)(F)F)cc2C(F)(F)F)cc1)c1ccc[nH]1 [Example 166, N-[4-[3,5-bis(trifluoromethyl)-1H-pyrazol-1-yl]phenyl]-1H-pyrrole-2-carboxamide] | – | – | – | 11% | – |
| 118 to 119 °C | O=C(Nc1ccc(-n2nc(C(F)(F)F)cc2C(F)(F)F)cc1)c1nc(Cl)ccc1Cl [Example 167, N-[4-[3,5-bis(trifluoromethyl)-1H-pyrazol-1-yl]phenyl]-3,6-dichloro-2-pyridinecarboxamide] | 100% | 279 nM | – | – | – |
| 170 to 173 °C | O=C(COc1ccccc1[N+](=O)[O-])Nc1ccc(-n2nc(C(F)(F)F)cc2C(F)(F)F)cc1 [Example 168, N-[4-[3,5-bis(trifluoromethyl)-1H-pyrazol-1-yl]phenyl]-2-(2-nitrophenoxy)acetamide] | – | – | – | 20% | – |
| 122 to 124 °C | O=C(Cc1ccc(Cl)cc1)Nc1ccc(-n2nc(C(F)(F)F)cc2C(F)(F)F)cc1 [Example 169, N-[4-[3,5-bis(trifluoromethyl)-1H-pyrazol-1-yl]phenyl]-4-chlorobenzeneacetamide] | – | – | – | 2% | – |
| 176 to 178 °C | O=C(Cc1cc2ccccc2[nH]1)Nc1ccc(-n2nc(C(F)(F)F)cc2C(F)(F)F)cc1 [Example 170, N-[4-[3,5-bis(trifluoromethyl)-1H-pyrazol-1-yl]phenyl]-1H-indole-2-acetamide] | – | – | – | 25% | – |
| 216 to 218 °C | O=C(/C=C/c1cccs1)Nc1ccc(-n2nc(C(F)(F)F)cc2C(F)(F)F)cc1 [Example 171, (E)-N-[4-[3,5-bis(trifluoromethyl)-1H-pyrazol-1-yl]phenyl]-3-(2-thienyl)-2-propenamide] | – | – | – | 12% | – |
| 94 to 95 °C | CC(=O)N1CCC(C(=O)Nc2ccc(-n3nc(C(F)(F)F)cc3C(F)(F)F)cc2)CC1 [Example 174, 1-Acetyl-N-[4-[3,5-bis(trifluoromethyl)-1H-pyrazol-1-yl]phenyl]-4-piperidinecarboxamide] | – | 730 nM | 99% | – | – |
| 178 to 180 °C | COc1cc(Cl)ccc1C(=O)Nc1ccc(-n2nc(C(F)(F)F)cc2C(F)(F)F)cc1 [Example 176, N-[4-[3,5-Bis(trifluoromethyl)-1H-pyrazol-1-yl]phenyl]-4-chloro-2-methoxybenzamide] | – | – | – | 12% | – |
| < 80 °C | CC(C(=O)Nc1ccc(-n2nc(C(F)(F)F)cc2C(F)(F)F)cc1)c1ccc(C(=O)c2cccs2)cc1 (stereo not drawn) [Example 177, N-[4-[3,5-bis(trifluoromethyl)-1H-pyrazol-1-yl]phenyl]-α-methyl-4-(2-thienylcarbonyl)benzeneacetamide] | – | – | – | – | 4(1) % |
| < 100 °C | CC(C(=O)Nc1ccc(-n2nc(C(F)(F)F)cc2C(F)(F)F)cc1)c1ccc(C(=O)c2cccs2)cc1 (stereo not drawn) [Example 178, N-[4-[3,5-bis(trifluoromethyl)-1H-pyrazol-1-yl]phenyl]-α-methyl-4-(2-thienylcarbonyl)benzeneacetamide] | – | – | – | – | 14(1) % |
| 193 to 194 °C | O=C(Nc1ccc(-n2nc(C(F)(F)F)cc2C(F)(F)F)cc1)c1ccc(O)c([N+](=O)[O-])c1 [Example 180, N-[4-[3,5-bis(trifluoromethyl)-1H-pyrazol-1-yl]phenyl]-4-hydroxy-3-nitrobenzamide] | – | 2870 nM | 95% | – | – |
| 233 to 235 °C | O=C(Nc1ccc(-n2nc(C(F)(F)F)cc2C(F)(F)F)cc1)c1ccc(O)c(O)c1 [Example 181, N-[4-[3,5-bis(trifluoromethyl)-1H-pyrazol-1-yl]phenyl]-3,4-dihydroxybenzamide] | – | 2240 nM | 100% | – | – |
| 114 to 116 °C | COc1cccc(O)c1C(=O)Nc1ccc(-n2nc(C(F)(F)F)cc2C(F)(F)F)cc1 [Example 182, N-[4-[3,5-bis(trifluoromethyl)-1H-pyrazol-1-yl]phenyl]-2-hydroxy-6-methoxybenzamide] | – | 4670 nM | 83% | – | – |
| 200 to 201 °C | O=C(Nc1ccc(-n2nc(C(F)(F)F)cc2C(F)(F)F)cc1)c1ccc(C(F)(F)F)cc1C(F)(F)F [Example 183, N-[4-[3,5-bis(trifluoromethyl)-1H-pyrazol-1-yl]phenyl]-2,4-bis(trifluoromethyl)benzamide] | – | 542 nM | 94% | – | – |
| 163 to 167 °C | Cc1oncc1C(=O)Nc1ccc(-n2nc(C(F)(F)F)cc2C(F)(F)F)cc1 [Example 184, N-[4-[3,5-bis(trifluoromethyl)-1H-pyrazol-1-yl]phenyl]-5-methyl-4-isoxazolecarboxamide] | – | 420 nM | 90% | – | – |
| 162 to 164 °C | O=C(Nc1ccccc1Cl)c1ccc(-n2nc(C(F)(F)F)cc2C(F)(F)F)cc1 [Example 185, 4-[3,5-Bis(trifluoromethyl)-1H-pyrazol-1-yl]-N-(2-chlorophenyl)benzamide] | – | – | – | 26% | – |
| 195 to 196 °C | N#Cc1cccc(NC(=O)c2ccc(-n3nc(C(F)(F)F)cc3C(F)(F)F)cc2)c1 [Example 186, 4-[3,5-Bis(trifluoromethyl)-1H-pyrazol-1-yl]-N-(3-cyanophenyl)benzamide] | – | – | – | 14% | – |
| 176 to 177 °C | O=C(Nc1ccc(F)cc1F)c1ccc(-n2nc(C(F)(F)F)cc2C(F)(F)F)cc1 [Example 187, 4-[3,5-Bis(trifluoromethyl)-1H-pyrazol-1-yl]-N-(2,4-difluorophenyl)benzamide] | – | 362 nM | – | 86% | – |
| 203 to 205 °C | N#Cc1ccccc1NC(=O)c1ccc(-n2nc(C(F)(F)F)cc2C(F)(F)F)cc1 [Example 188, 4-[3,5-Bis(trifluoromethyl)-1H-pyrazol-1-yl]-N-(2-cyanophenyl)benzamide] | – | 485 nM | 87% | – | – |
| 170 to 171 °C | Cc1nc(C)n(-c2ccc(NC(=O)c3c(C)noc3C)cc2)n1 [Example 189, 3,5-dimethyl-N-[4-(3,5-dimethyl-1H-1,2,4-triazol-1-yl)phenyl]-4-isoxazolecarboxamide] | – | – | – | 24% | – |
